The results in this text go back to US6969714B2, “Imidazolo-5-YL-2-anilino-pyrimidines as agents for the inhibition of the cell proliferation” (AstraZeneca AB, priority 2000, dated 2005).

In the assay the target is T1, CDK2/Cyclin E (Homo sapiens, UniProt P24941).
T1 construct: The open reading frames of CDK2 and Cyclin E were isolated; made in house; host or cells: Sf21 (Spodoptera frugiperda) insect cells, baculovirus co-infection; the GST-Rb substrate was made in E. coli BL21 (DE3) pLysS
Briefly: in vitro kinase assay, Scintillation Proximity Assay, incorporation of [γ-33-P]-ATP into GST-Rb. In kind it is biochemical. The following applies: GST-Rb substrate, 0.2 μM ATP, 60 minutes at room temperature, read-out: CDK2 inhibitory activity IC50. The method, then:
The compounds were tested in an in vitro kinase assay in 96 well format using Scintillation Proximity Assay (SPA—obtained from Amersham) for measuring incorporation of [γ-33-P]-Adenosine Triphosphate into a test substrate (GST-Retinoblastoma protein; GST-Rb). In each well was placed the compound to be tested (diluted in DMSO and water to correct concentrations) and in control wells either roscovitine as an inhibitor control or DMSO as a positive control. […]
The plates were sealed with Topseal-S plate sealers, left for two hours then spun at 2500 rpm, 1124×g., for 5 minutes. The plates were read on a Topcount for 30 seconds per well. […]
E. coli paste was resuspended in 10 ml/g of NETN buffer (50 mM Tris pH 7.5, 120 mM NaCl, 1 mM EDTA, 0.5% v/v NP-40, 1 mM PMSF, 1 ug/ml leupeptin, 1 ug/ml aprotinin and 1 ug/ml pepstatin) and sonicated for 2×45 seconds per 100 ml homogenate. […] The final product was analysed by Sodium Dodeca Sulfate (SDS) PAGE (Polyacrylamide gel) using 8-16% Tris-Glycine gels (Novex, San Diego, USA).
The open reading frames of CDK2 and Cyclin E were isolated by reverse transcriptase-PCR using HeLa cell and activated T cell mRNA as a template and cloned into the insect expression vector pVL1393 (obtained from Invitrogen 1995 catalogue number: V1392-20). […]

Turning to `Cn1cncc1-c1ccnc(Nc2ccccc2)n1` [Example 14, 2-Anilino-4-(1-methylimidazol-5-yl)pyrimidine], the IC50 was determined as 0.146 µM.
